Columns and labels:
Test in all cases: KinomeScan profiling
Assay type in all cases: binding
[1] = target: T1, PRKD1 (Homo sapiens, UniProt Q15139); conditions: PRKD1, 1 μM; read-out: % control
T1 sequence (Q15139 1-912): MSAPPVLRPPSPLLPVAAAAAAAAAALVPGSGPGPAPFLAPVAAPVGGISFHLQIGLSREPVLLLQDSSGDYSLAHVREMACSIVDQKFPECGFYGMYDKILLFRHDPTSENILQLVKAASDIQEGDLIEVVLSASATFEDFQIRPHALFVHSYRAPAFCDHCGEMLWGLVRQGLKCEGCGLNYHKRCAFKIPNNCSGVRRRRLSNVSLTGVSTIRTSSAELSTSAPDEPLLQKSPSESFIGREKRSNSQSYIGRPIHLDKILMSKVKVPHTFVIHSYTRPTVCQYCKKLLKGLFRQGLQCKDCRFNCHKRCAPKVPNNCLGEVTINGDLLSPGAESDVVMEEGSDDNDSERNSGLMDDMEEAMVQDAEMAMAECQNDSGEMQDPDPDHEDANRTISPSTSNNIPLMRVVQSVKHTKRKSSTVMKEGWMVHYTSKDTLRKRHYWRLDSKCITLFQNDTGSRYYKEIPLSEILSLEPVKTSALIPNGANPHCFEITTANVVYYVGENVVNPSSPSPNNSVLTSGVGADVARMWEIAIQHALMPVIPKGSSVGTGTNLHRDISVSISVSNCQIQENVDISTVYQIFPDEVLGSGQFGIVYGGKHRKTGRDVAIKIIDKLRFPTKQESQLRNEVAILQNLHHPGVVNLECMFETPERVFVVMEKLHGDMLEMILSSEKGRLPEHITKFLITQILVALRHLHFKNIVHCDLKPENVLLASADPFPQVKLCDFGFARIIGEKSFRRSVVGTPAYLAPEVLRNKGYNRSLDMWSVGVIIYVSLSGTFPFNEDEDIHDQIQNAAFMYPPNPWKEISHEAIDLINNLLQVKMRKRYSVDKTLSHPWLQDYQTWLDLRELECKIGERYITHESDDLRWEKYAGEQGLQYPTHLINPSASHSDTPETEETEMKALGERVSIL
Method in brief: (§1)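 Compounds were screened at 1 μM in DMSO across a 468-kinase KinomeScan panel. Binding was expressed as % control, scaled between a positive control (0%) and DMSO (100%) using luminescence signal. A value under 35% counted as active.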

[2] = target: T2, BMPR2 (Homo sapiens, UniProt Q13873); conditions: BMPR2, 1 μM; read-out: % control
T2 construct: purchased KinomeScan®
T2 sequence (Q13873 27-1038): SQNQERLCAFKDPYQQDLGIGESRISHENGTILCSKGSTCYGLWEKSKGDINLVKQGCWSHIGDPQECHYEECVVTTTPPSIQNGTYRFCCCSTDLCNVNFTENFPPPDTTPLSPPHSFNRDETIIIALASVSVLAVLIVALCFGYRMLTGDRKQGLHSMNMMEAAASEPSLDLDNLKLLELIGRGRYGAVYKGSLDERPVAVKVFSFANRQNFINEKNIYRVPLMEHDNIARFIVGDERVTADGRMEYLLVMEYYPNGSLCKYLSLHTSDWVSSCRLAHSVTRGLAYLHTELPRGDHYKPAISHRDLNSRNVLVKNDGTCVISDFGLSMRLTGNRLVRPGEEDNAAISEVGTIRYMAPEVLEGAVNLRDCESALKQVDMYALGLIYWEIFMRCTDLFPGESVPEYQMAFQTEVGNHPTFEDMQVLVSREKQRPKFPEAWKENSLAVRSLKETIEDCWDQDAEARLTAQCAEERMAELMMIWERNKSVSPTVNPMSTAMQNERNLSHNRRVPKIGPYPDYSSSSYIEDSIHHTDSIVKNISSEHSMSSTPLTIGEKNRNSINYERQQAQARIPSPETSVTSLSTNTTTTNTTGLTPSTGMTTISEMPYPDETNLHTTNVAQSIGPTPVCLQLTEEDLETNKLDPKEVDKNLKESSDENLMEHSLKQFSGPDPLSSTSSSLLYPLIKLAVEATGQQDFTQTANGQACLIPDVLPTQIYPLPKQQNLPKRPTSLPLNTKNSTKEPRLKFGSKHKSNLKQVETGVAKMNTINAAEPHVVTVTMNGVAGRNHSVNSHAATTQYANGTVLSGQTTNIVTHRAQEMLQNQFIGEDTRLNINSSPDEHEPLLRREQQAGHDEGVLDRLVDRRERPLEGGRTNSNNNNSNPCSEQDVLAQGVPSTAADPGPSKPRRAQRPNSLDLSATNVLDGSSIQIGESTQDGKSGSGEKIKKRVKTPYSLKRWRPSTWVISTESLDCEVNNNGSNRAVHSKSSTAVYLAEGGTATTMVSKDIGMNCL
Method in brief: as §1

[3] = target: T3, ABL1(T315I)-nonphosphorylated (Homo sapiens, UniProt P00519, T315I); conditions: read-out: % control
T3 construct: purchased KinomeScan®
Method in brief: as §1

[4] = target: PRKCH (Homo sapiens, UniProt P24723); conditions: read-out: % control
Method in brief: as §1

[5] = target: T4, KIT(A829P) (Homo sapiens, UniProt P10721, A829P); conditions: read-out: % control
T4 construct: purchased KinomeScan®
Method in brief: as §1

[6] = target: MRCKB (Homo sapiens, UniProt Q9Y5S2); conditions: read-out: % control
Method in brief: as §1

T4 sequence (P10721 26-976 A829P): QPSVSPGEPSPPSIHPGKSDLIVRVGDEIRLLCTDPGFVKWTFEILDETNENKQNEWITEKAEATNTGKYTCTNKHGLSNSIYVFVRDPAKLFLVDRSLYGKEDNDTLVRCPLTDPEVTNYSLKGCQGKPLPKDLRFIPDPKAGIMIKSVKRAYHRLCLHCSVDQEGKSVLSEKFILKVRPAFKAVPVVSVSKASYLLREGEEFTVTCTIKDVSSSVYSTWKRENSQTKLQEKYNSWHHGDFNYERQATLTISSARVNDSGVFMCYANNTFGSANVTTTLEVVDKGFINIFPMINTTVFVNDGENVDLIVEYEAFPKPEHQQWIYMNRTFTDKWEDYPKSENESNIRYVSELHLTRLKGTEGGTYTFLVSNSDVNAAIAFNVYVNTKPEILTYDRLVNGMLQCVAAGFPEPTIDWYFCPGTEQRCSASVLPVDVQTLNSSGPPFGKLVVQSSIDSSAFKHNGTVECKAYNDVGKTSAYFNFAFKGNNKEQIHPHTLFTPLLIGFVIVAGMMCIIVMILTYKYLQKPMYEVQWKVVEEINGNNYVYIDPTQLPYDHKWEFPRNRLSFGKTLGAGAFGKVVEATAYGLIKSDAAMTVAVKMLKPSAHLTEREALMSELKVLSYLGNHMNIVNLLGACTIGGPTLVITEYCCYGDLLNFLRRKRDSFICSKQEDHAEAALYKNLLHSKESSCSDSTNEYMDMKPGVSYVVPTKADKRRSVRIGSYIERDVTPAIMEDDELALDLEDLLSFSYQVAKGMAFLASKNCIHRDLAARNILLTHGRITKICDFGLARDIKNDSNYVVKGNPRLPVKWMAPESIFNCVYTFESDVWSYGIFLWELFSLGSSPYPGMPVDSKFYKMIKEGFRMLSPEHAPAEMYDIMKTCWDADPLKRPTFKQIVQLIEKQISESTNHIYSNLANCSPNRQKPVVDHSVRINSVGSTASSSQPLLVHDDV
Sequence of MRCKB (Q9Y5S2 whole entry): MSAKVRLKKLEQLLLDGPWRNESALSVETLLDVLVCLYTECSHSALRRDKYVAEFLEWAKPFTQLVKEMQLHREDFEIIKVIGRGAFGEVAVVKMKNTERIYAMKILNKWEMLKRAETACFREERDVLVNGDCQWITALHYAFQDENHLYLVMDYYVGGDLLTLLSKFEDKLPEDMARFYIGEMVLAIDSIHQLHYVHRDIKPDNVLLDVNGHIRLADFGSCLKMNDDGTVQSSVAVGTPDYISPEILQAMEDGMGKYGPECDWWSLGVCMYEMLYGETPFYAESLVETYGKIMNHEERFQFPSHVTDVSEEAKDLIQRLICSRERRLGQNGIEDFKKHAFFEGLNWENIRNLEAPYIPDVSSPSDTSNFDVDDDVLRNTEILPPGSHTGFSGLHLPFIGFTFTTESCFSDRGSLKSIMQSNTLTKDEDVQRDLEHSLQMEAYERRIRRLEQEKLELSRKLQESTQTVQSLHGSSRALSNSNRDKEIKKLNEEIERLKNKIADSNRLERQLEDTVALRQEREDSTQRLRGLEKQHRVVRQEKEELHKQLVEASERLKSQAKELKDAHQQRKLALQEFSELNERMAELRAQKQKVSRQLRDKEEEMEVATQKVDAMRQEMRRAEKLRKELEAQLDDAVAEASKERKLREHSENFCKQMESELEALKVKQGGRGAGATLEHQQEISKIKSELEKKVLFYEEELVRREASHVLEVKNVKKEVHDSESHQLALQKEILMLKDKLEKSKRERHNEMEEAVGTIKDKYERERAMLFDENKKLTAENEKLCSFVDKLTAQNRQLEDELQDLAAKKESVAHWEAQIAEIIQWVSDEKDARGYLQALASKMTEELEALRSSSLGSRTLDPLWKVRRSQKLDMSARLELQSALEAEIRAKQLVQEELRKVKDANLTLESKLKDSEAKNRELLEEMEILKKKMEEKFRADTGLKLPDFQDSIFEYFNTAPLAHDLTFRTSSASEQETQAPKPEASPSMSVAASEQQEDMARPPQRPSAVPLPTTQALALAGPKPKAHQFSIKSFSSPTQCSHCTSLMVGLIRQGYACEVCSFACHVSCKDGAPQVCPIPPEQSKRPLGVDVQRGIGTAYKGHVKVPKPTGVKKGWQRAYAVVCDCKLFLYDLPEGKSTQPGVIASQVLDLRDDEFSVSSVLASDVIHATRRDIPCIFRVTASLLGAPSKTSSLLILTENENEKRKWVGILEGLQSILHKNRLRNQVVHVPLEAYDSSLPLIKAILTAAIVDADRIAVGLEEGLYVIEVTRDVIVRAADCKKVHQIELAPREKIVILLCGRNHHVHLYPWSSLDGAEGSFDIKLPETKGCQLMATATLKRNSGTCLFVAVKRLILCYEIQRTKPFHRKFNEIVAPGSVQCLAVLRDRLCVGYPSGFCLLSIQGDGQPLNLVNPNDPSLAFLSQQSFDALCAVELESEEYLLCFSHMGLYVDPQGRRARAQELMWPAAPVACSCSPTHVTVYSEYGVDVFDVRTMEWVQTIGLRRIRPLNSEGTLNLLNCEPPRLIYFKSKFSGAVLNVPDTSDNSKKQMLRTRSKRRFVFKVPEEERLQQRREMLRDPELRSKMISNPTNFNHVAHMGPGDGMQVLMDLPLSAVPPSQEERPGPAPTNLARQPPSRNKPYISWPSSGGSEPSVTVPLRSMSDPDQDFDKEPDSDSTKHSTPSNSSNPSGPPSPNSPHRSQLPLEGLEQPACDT
Sequence of PRKCH (P24723 whole entry): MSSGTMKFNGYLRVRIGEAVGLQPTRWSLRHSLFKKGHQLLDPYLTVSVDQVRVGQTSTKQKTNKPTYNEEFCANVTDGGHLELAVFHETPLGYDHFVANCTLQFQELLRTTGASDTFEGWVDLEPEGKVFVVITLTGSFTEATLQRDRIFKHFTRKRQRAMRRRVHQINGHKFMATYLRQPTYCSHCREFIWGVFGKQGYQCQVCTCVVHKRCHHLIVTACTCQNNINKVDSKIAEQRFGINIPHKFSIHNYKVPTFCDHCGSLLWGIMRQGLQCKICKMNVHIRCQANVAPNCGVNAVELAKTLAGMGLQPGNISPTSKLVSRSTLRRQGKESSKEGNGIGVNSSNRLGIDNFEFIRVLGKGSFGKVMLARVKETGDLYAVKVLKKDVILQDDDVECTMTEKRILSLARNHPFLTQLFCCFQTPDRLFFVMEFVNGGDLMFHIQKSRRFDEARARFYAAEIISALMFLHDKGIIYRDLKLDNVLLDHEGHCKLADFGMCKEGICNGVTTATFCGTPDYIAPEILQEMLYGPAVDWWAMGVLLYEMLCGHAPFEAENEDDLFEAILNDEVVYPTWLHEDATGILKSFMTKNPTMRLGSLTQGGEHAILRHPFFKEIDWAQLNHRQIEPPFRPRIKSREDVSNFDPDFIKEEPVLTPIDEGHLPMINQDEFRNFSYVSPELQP

SMILES	remaining binding at 1 µM [1] [%]	remaining binding at 1 µM [2] [%]	remaining binding at 1 µM [3] [%]	remaining binding at 1 µM [4] [%]	remaining binding at 1 µM [5] [%]	remaining binding at 1 µM [6] [%]
CNc1c(-c2cnn([C@H]3CCN(C(C)=O)C[C@@H]3F)c2)cnc2[nH]cc(Cl)c12 [Compound 77, 1-((3S,4S)-4-(4-(3-chloro-4-(methylamino)-1H-pyrrolo[2,3-b]pyridin-5-yl)-1H-pyrazol-1-yl)-3-fluoropiperidin-1-yl)ethan-1-one]	58	40	100	83	46	86
CNc1c(-c2ccc(C(=O)N3CCC(N4CCOCC4)CC3)cc2)cnc2[nH]cc(Cl)c12 [Compound 96, (4-(3-chloro-4-(methylamino)-1H-pyrrolo[2,3-b]pyridin-5-yl)phenyl)(4-morpholinopiperidin-1-yl)methanone]	19	53	100	92	53	93
O=C(c1ccc(-c2cnc3[nH]cc(Cl)c3c2NC2CCCC2)cc1)N1CCC(N2CCOCC2)CC1 [Compound 101, (4-(3-chloro-4-(cyclopentylamino)-1H-pyrrolo[2,3-b]pyridin-5-yl)phenyl)(4-morpholinopiperidin-1-yl)methanone]	48	98	85	73	100	82

Reference: patent US12275731B2, “Azaindole inhibitors of wild-type and mutant forms of LRRK2” (DANA-FARBER CANCER INSTITUTE, INC., priority 2018, dated 2025)
